Data on six compounds can be found in ChEMBL document CHEMBL1130772, “New nonsteroidal androgen receptor modulators based on 4-(trifluoromethyl)-2(1H)-pyrrolidino[3,2-g] quinolinone” (Bioorg Med Chem Lett, 1998).

pEC50, pIC50, pKi: −log10 of the molar value.

The target of assay [1] is T1, Androgen receptor (Homo sapiens, UniProt P10275).
T1 sequence (P10275 whole entry): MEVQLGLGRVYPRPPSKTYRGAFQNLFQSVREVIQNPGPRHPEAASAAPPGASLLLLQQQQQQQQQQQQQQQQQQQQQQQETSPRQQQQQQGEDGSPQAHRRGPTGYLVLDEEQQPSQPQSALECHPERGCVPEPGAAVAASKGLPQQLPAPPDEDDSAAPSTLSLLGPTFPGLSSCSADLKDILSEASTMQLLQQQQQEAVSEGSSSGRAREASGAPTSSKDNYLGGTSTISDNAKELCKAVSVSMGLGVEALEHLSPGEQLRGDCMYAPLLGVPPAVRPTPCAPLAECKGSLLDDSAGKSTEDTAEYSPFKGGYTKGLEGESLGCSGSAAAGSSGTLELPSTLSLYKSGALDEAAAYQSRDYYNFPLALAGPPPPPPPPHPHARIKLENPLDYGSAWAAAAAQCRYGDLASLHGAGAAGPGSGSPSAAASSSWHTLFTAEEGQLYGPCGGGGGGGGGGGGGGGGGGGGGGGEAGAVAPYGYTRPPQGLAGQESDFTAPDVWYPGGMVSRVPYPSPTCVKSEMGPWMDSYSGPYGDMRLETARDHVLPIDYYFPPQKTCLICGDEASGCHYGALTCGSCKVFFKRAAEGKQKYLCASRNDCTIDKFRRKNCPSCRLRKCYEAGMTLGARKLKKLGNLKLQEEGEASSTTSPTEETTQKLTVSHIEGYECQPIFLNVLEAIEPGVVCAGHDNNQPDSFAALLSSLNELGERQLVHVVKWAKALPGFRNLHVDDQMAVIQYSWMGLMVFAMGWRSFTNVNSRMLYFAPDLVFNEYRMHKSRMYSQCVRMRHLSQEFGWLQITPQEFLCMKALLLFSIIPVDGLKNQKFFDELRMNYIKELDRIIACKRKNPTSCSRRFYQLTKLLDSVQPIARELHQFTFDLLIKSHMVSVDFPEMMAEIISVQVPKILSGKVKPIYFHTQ
As to the kind of experiment: Binding affinity against hAR androgen receptor expressed in COS cells. The class given is cell-based.

Assay [2] addresses T1, Androgen receptor.
Assay [3] concerns the target T1, Androgen receptor. Conditions: cv-1; call rule not given here.
Assay [4] deals with T1, Androgen receptor. The assay can be described thus: Antagonistic activity (IC50) against human androgen receptor (hAR) in co-transfected CV-1 cell. In kind it is functional, cell-based.
Assay [5] has as its target T1, Androgen receptor. As to the kind of experiment: Binding affinity against Androgen receptor transfected into COS cells.
Assay [6] concerns the target T1, Androgen receptor. As to the kind of experiment: Agonistic activity (EC50) against human androgen receptor (hAR) in co-transfected CV-1 cell. In kind it is functional, cell-based.
The target of another assay is T2, Glucocorticoid receptor (Homo sapiens, UniProt P04150).
T2 sequence (P04150 whole entry): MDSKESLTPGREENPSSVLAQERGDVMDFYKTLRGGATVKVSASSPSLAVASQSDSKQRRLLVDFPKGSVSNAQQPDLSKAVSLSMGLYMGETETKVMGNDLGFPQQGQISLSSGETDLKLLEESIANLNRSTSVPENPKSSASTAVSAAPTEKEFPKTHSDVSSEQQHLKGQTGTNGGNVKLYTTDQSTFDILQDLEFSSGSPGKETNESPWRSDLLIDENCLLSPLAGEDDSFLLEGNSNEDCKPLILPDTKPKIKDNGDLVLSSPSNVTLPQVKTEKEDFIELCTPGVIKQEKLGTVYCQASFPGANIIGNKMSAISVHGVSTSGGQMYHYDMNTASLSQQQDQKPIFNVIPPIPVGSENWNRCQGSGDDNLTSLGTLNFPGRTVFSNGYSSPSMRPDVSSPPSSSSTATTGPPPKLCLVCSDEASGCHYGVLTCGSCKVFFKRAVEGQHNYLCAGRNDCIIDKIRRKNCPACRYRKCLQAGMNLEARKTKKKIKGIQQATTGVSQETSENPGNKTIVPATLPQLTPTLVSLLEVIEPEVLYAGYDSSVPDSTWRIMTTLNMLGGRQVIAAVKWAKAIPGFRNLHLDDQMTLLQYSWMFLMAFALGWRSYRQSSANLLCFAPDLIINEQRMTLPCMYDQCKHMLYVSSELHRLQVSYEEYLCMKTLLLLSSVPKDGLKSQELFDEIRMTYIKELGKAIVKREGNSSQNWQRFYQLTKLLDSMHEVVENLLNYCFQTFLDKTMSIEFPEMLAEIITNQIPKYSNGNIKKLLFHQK
As to the kind of experiment: (§1) Antagonistic activity against Glucocorticoid receptor in co-transfected CV-1 cell. The class given is functional, cell-based.

Assay [7] addresses T3, Glucocorticoid receptor (Homo sapiens) (UniProt P04150).
T3 sequence (whole entry): T2 sequence (P04150 whole entry)
The description is as §1. The class given is functional, cell-based.

Assay [8] deals with T4, Estrogen receptor (Homo sapiens, UniProt Q92731+P03372). As to the kind of experiment: (§2) Antagonistic activity against Estrogen receptor in co-transfected CV-1 cell. The class given is functional, cell-based.
Assay [9] has as its target T4, Estrogen receptor. The assay is described as §2. In kind it is functional, cell-based. The source holds these as a separate data set.
For assay [10], the target named is T5, Mineralocorticoid receptor (Homo sapiens) (UniProt P08235).
T5 sequence (whole entry): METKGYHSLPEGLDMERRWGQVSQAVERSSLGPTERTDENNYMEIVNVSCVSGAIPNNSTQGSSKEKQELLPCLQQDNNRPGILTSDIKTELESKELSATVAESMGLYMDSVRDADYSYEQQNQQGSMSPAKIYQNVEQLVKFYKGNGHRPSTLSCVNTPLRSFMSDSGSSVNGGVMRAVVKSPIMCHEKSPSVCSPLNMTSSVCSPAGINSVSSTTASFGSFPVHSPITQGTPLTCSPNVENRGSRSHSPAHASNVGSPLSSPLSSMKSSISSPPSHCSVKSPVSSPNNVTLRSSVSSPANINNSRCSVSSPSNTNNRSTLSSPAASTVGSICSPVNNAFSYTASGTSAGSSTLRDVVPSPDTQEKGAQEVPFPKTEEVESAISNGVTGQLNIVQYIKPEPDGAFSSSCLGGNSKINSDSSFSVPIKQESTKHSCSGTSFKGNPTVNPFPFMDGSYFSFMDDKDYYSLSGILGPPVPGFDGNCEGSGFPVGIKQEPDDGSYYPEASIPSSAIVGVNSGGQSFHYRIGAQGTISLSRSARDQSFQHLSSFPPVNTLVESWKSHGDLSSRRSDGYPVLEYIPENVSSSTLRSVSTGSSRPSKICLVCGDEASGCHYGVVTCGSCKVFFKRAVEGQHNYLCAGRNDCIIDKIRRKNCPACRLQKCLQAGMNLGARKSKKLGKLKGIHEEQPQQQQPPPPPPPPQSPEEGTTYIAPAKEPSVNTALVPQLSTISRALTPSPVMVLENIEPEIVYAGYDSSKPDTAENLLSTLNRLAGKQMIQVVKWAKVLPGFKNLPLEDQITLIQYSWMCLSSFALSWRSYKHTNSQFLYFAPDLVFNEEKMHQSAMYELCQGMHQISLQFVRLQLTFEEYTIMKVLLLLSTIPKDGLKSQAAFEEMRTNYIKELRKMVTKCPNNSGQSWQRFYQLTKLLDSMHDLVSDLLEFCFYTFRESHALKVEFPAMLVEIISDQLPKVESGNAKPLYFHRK
As to the kind of experiment: (§3) Antagonistic activity against hMR in co-transfected CV-1 cell. In kind it is functional, cell-based.

The target of assay [11] is T6, Mineralocorticoid receptor (Homo sapiens, UniProt P08235).
T6 sequence (P08235 whole entry): T5 sequence (whole entry)
The assay is described as §3. In kind it is functional, cell-based.

Assay [12] deals with T7, Progesterone receptor (Homo sapiens) (UniProt P06401).
T7 sequence (whole entry): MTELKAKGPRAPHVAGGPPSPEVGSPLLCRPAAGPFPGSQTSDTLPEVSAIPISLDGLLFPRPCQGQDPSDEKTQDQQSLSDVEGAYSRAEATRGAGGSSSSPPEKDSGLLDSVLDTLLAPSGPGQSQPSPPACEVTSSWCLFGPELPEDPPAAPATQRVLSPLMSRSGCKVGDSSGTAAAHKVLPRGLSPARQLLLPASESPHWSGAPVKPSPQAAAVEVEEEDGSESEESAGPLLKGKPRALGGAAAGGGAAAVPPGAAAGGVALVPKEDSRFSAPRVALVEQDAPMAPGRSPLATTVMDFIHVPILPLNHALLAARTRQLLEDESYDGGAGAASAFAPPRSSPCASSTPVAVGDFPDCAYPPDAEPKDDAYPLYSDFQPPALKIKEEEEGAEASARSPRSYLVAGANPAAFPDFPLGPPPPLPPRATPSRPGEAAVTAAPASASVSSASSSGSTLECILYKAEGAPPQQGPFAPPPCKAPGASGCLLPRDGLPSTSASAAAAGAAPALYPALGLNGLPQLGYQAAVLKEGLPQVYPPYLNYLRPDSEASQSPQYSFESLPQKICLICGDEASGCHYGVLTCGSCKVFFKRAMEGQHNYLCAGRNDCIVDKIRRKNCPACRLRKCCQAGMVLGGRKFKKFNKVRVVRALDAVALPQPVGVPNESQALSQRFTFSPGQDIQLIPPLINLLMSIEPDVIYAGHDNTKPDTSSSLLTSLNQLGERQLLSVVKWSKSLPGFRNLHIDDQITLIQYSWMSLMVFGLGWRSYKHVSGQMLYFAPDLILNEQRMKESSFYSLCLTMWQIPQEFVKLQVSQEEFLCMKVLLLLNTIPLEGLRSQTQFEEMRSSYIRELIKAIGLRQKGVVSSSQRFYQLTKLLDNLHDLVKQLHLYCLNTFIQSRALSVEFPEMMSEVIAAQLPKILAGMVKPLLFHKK
The assay can be described thus: (§4) Antagonistic activity against hPR in co-transfected CV-1 cell. In kind it is functional, cell-based.

Another assay has as its target T8, Progesterone receptor (Homo sapiens, UniProt P06401).
T8 sequence (P06401 whole entry): T7 sequence (whole entry)
The assay is described as §4. In kind it is functional, cell-based.

With `Cn1c(=O)cc(C(F)(F)F)c2cc3c(cc21)NCC3`, the pKi (in general, the Ki on a negative log10 scale, so that one unit is a factor of ten) at Androgen receptor [1] was 7.21. At Androgen receptor [2], the negative-log IC50 (pIC50) (as a rule, −log10 of the IC50, conventionally taken in molar units) is 7.25. Moreover, the EC50 result on Androgen receptor [3] was “Not Active”.
`CN1CCc2cc3c(C(F)(F)F)cc(=O)n(C)c3cc21` had a negative-log Ki (pKi) on Androgen receptor [1] of 6.78. For the same compound, at Androgen receptor [2], the negative-log IC50 (pIC50) was 6.71. Moreover, the EC50 entry on Androgen receptor [3] is recorded as “Not Active”.
Regarding `C[C@@H]1c2cc3c(C(F)(F)F)cc(O)nc3cc2N[C@@H]1C`, the IC50 (commonly the point on the concentration scale where inhibition reaches its midpoint) was “Not Active” at Androgen receptor [4] and over 10000 nM at Estrogen receptor [9]. For the same compound, the negative-log Ki (pKi) at Androgen receptor [5] was 8.22. For the same compound, the pEC50 (commonly the EC50 on a negative log10 scale, so that one unit is a factor of ten) on Androgen receptor [6] is 8.30. In addition, the figures for the pIC50 (against Glucocorticoid receptor; in [11]; on Progesterone receptor) were 5.60, 5.70 and 5.72, respectively. In addition, the Efficacy is 35% in assay [7], under 20% on Estrogen receptor [8], 29% in assay [10] and 88% in assay [12].
As to `Oc1cc(C(F)(F)F)c2cc3c(cc2n1)N[C@@H]1CCCC[C@H]31`, the IC50 entry is “Not Active” against Androgen receptor [4] and over 10000 nM on Estrogen receptor [9]. For the same compound, the pKi at Androgen receptor [5] was 8.30. At Androgen receptor [6], this compound gave a negative-log EC50 (pEC50) of 8.30. In addition, the pIC50 at Glucocorticoid receptor is 5.24; in assay [11] it was 5.70; on Progesterone receptor, 6.77. Also, the Efficacy in [7] is 33%; on Estrogen receptor [8] it was under 20%; in [10] it was 54%; in assay [12] it was 91%.
At Androgen receptor [1], `CC1(C)CCC[C@@H]2c3cc4c(C(F)(F)F)cc(O)nc4cc3N[C@@H]21` had a negative logarithm of the Ki (pKi) of 7.10. The same compound had a pIC50 against Androgen receptor [2] of 7.59. Also, at Androgen receptor [3], the EC50 entry was “Not Active”.
Turning to `CN1c2cc3c(cc2[C@H]2CCCC(C)(C)[C@H]21)c(C(F)(F)F)cc(=O)n3C`, on Androgen receptor [1], the pKi is 7.23. Also, the pIC50 against Androgen receptor [2] is 7.57. In addition, on Androgen receptor [3], the EC50 result was “Not Active”.
